From paper PMC4109680, “Identification and Preclinical Pharmacology of the γ-Secretase Modulator BMS-869780” (International Journal of Alzheimer's Disease, 2014)

Tested on: Aβ1-40 (MEF M146V)
Test: Aβ1-40 ELISA in MEF dKO cultures cotransfected with APP-CTF and human presenilin-1 M146V allele
Assay type: cell-based
Experimental: H4-APPsw cell cultures were maintained on Dulbecco's modified Eagle's medium (DMEM) supplemented with L-glutamine (2 mM), fetal bovine serum (10%), and G418 (100 μg/mL). […] Aβ1-42 and Aβ1-40 assays, and Notch inhibition assays, were carried out as described previously. Mouse embryonic fibroblasts deficient in PS1 and PS2 (MEF dKO) were passaged twice per week in DMEM/F-12 medium, consisting of a 1 : 1 mixture of DMEM and F-12 nutrient mixture supplemented with 10% fetal bovine serum, penicillin, and streptomycin. For expression of human presenilin-1 in MEF dKO cells, the full length human presenilin-1 cDNA open reading frame was cloned between the BamHI and XhoI sites of the vector pcDNA5/FRT (Invitrogen), placing presenilin-1 expression under the control of the CMV promoter. […]
IC50 determinations for Aβ1-42 and Aβ1-40 in H4-APPsw cultures in 384-well format were determined using homogeneous time-resolved fluorescence immunoassays as previously described. […] In other experiments using H4-APPsw cultures, Aβ was quantified by ELISA; for Aβ1-42 the combination of monoclonal antibodies was 26D6 and 565-HRP; for Aβ1-40 it was TSD and 26D6-HRP, and for Aβ1-x it was 4G8 and 26D6-HRP. […] For Aβ in transiently transfected PS1/PS2 dKO fibroblasts, Aβ1-42 was quantified using an ELISA kit (WACO), and Aβ1-40 was quantified by ELISA as described above for H4-APPsw cultures. […]

## COc1cc(Nc2nc3n(n2)CCCC[C@H]3c2ccc(F)cc2)ccc1-n1cnc(Cl)c1 [BMS-869780]
Homo sapiens, presenilin-1 M146V allele
  IC50: 34 nM
MEF cultures
  Aβ1-40 IC50 shift in M146V allele relative to wild type presenilin: ca. 3 fold
